From patent US8461170B2, “Chemical compounds” (Astrazeneca AB, priority 2010, dated 2013)
Where two headings read alike, the source gives them in different places. Blank lines part the entries; values can stand above or below the compound they belong to.

Columns and labels:
human ALK = target: T1, human ALK (Homo sapiens, UniProt Q9UM73); assay: ALK kinase mobility shift assay (Caliper LC3000); format: biochemical; conditions: ATP 30 μM (Km) or 5 mM, not specified which
T1 construct: GST (N); purchased Invitrogen, Carlsbad, Calif; (or prepared by AstraZeneca); host or cells: insect cells
Description: ALK kinase activity was determined by measuring the kinase's ability to phosphorylate a tyrosine residue within a peptide substrate using a mobility shift assay on a Caliper LC3000 reader (Caliper Life Sciences, Hopkinton, Mass.), which measures fluorescence of the phosphorylated and unphosphorylated substrate and calculates a ratiometric value to determine percent turnover.
To measure ALK kinase activity, the ALK enzyme used was N-terminal GST-tagged, recombinant, human ALK, amino acids 1058-1620 (Genbank Accession number NP_004295) expressed in insect cells and activated in-vitro via autophosphorylation. This was either purchased from a commercially available source (Invitrogen, Carlsbad, Calif.) or prepared by AstraZeneca. The kinase was incubated with a FAM labeled SRCtide substrate (5FAM-GEEPLYWSFPAKKK-NH2, AnaSpec, Fremont, Calif.), 30 μM adenosine triphosphate (ATP, at Km concentration) or 5 mM ATP, 50 mM HEPES buffer (pH 7.3), 1 mM DTT, 0.01% Tween 20, 50 μg/ml BSA and 10 mM MgCl2 for 90 minutes at room temperature. After this time, the kinase reaction was stopped by adding quenching buffer containing final concentrations of 36 mM ethylenediaminetetraacetic acid (EDTA), 65 mM HEPES buffer (pH 7.3), 0.2% Coatin Reagent 3 (Caliper Life Sciences, Hopkinton, Mass.), and 0.003% Tween 20. The reaction was performed in 384 well microtitre plates and the reaction products were detected using the Caliper LC3000 Reader in the presence of separation buffer consisting of 100 mM HEPES (pH 7.3), 15.8 mM EDTA, 0.1% Coatin Reagent 3 (Caliper, Mass.), 0.015% Brij-35, 5% DMSO, and 5.6 mM MgCl2. The separation conditions set up on the Caliper LC3000 were −1.7 PSI, −400V upstream voltage, −2000V downstream voltage, 0.2 second sample sip, 45 second post sip, and 150 seconds final delay. The percentage of inhibition of ALK enzyme activity by compounds were measured based on Max signals (DMSO control) and Min signals (EDTA control) in the plates. Data was graphed and IC50s calculated by IDBS ActivityBase program.

ALK (h) = ALK (h) (Homo sapiens, UniProt Q9UM73); assay: alternate ALK protocol (33P-ATP filter-binding radiometric assay); format: biochemical; conditions: 250 μM KKKSPGEYVNIEFG substrate, [γ-33P-ATP], 40 minutes at room temperature, read-out: ALK inhibitory activities (IC50s (μM))
Description: Examples 1, 9 and 10 were additionally tested using an alternate ALK protocol as follows: ALK (h) was incubated with 8 mM MOPS pH 7.0, 0.2 mM EDTA, 250 μM KKKSPGEYVNIEFG, 10 mM MgAcetate and [γ-33P-ATP] (specific activity approx. 500 cpm/pmol, concentration as required). The reaction was initiated by the addition of the MgATP mix. After incubation for 40 minutes at room temperature, the reaction was stopped by the addition of 3% phosphoric acid solution. 10 μL of the reaction was spotted onto a P30 filtermat and washed three times for 5 minutes in 75 mM phosphoric acid and once in methanol prior to drying and scintillation counting. When tested in the assay described above, Examples 1, 9 and 10 each had ALK inhibitory activities (IC50s (μM)) of 0.004, 0.019, and 0.006, respectively.

[1] = cumulative geometric means including test re-runs, some obtained since the priority filings, read-out: ALK Enzyme IC50 (μM)**
[2] = geometric means of multiple test runs, as presented in the priority filings, read-out: ALK Enzyme IC50 (μM)*

ALK (h), sequence (Q9UM73 19-1620): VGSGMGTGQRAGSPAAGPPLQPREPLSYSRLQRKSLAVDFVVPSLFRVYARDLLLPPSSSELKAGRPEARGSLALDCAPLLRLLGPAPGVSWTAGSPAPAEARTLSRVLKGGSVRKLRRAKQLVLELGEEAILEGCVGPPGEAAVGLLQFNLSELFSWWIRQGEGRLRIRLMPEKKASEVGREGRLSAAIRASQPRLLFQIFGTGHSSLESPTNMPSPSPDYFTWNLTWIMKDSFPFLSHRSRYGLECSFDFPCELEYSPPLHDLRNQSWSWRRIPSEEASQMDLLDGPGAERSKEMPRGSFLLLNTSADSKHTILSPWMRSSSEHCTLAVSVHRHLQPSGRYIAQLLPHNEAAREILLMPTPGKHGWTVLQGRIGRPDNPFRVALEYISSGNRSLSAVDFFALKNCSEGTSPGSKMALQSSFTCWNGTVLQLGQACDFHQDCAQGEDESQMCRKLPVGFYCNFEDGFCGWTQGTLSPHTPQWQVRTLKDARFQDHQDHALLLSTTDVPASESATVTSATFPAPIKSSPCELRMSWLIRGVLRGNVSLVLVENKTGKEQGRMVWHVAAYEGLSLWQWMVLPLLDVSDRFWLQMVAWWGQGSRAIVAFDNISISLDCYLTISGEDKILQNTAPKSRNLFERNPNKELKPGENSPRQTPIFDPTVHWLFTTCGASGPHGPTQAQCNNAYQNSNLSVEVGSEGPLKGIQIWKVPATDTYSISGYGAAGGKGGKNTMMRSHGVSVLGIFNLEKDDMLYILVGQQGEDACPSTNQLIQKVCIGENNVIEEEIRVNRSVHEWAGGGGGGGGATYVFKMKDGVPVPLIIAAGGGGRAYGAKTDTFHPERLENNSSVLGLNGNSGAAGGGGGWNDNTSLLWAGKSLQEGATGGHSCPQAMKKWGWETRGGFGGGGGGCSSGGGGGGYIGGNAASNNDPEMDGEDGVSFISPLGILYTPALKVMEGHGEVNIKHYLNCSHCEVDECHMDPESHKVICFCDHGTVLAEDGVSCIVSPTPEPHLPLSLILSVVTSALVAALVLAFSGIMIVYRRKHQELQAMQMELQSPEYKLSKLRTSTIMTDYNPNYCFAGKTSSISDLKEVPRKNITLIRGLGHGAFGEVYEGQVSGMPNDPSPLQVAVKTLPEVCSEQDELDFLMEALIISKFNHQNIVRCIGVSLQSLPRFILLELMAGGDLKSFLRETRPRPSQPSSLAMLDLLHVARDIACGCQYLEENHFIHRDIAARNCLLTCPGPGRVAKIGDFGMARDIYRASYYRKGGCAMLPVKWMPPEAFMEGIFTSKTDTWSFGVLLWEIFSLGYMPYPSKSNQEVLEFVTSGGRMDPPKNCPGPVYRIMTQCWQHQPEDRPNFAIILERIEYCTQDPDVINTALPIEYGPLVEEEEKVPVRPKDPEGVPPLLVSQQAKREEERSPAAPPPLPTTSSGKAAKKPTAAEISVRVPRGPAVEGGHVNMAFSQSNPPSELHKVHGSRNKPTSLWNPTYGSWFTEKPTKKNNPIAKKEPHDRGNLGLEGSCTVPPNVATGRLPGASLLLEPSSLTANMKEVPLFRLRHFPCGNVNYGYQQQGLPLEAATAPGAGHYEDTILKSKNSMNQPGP
T1 sequence (Q9UM73 1058-1620): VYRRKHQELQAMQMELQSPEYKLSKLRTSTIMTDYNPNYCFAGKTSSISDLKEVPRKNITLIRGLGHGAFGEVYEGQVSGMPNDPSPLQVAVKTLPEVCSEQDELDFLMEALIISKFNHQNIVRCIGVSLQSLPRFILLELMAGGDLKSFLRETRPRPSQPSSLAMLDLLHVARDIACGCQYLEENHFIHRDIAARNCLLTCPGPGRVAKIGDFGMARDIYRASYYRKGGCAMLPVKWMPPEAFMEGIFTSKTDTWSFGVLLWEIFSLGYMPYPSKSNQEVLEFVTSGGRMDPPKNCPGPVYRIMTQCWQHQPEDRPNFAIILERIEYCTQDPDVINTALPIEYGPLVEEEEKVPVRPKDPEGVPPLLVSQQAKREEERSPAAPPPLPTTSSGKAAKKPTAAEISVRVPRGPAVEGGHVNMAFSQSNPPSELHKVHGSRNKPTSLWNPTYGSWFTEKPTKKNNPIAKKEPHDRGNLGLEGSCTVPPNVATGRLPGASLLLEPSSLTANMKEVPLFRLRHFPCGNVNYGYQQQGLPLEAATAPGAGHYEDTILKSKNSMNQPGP

SMILES: COc1cc(N2CCC(N3CCN(C)CC3)CC2)ccc1Nc1ncc(C)c(-c2c[nH]c3ccccc23)n1 [Example 9, 4-(1H-Indol-3-yl)-N-(2-methoxy-4-(4-(4-methylpiperazin-1-yl)piperidin-1-yl)phenyl)-5-methylpyrimidin-2-amine]
- IC50 (human ALK; [1]): 0.068 µM
- IC50 (human ALK; [2]): 0.05 µM
- IC50 (ALK (h)): 0.019 µM

SMILES: COc1cc(N2CCC(N3CCN(C)CC3)CC2)ccc1Nc1ncc(Cl)c(-c2c[nH]c3ccccc23)n1 [Example 10, 5-Chloro-4-(1H-indol-3-yl)-N-(2-methoxy-4-(4-(4-methylpiperazin-1-yl)piperidin-1-yl)phenyl)pyrimidin-2-amine]
- IC50 (human ALK; [2]): 0.02 µM
- IC50 (ALK (h)): 0.006 µM

SMILES: COc1cc(N2CCC(N3CCN(C)CC3)CC2)ccc1Nc1ncc(Br)c(-c2c[nH]c3ccccc23)n1 [Example 27]
- IC50 (human ALK; [2]): 0.033 µM

SMILES: COc1cc(N2CCC(N3CCN(C)CC3)CC2)ccc1Nc1ncc(C#N)c(-c2c[nH]c3ccccc23)n1 [Example 28, 4-(1H-Indol-3-yl)-2-(2-methoxy-4-(4-(4-methylpiperazin-1-yl)piperidin-1-yl)phenylamino)pyrimidine-5-carbonitrile]
- IC50 (human ALK; [2]): 0.024 µM

SMILES: CNC1CCN(c2ccc(Nc3ncc(Cl)c(-c4c[nH]c5ccccc45)n3)c(OC)c2)CC1(C)C (stereo not drawn) [Example 31, 5-chloro-N-(4-(3,3-dimethyl-4-(methylamino)piperidin-1-yl)-2-methoxyphenyl)-4-(1H-indol-3-yl)pyrimidin-2-amine]
- IC50 (human ALK; [1]): 0.136 µM
- IC50 (human ALK; [2]): 0.088 µM

SMILES: COc1cc(N2CC[C@H](N)[C@H](F)C2)ccc1Nc1ncc(Cl)c(-c2c[nH]c3ccccc23)n1 [Example 33, N-(4-((3R,4S)-4-amino-3-fluoropiperidin-1-yl)-2-methoxyphenyl)-5-chloro-4-(1H-indol-3-yl)pyrimidin-2-amine]
- IC50 (human ALK; [1]): 0.03 µM
- IC50 (human ALK; [2]): 0.025 µM

SMILES: COc1cc(N2CCC(N3CCN(C)CC3)CC2)ccc1Nc1ncc(Cl)c(-c2cn(C)c3ccccc23)n1 [Example 34, 5-Chloro-N-(2-methoxy-4-(4-(4-methylpiperazin-1-yl)piperidin-1-yl)phenyl)-4-(1-methyl-1H-indol-3-yl)pyrimidin-2-amine]
- IC50 (human ALK; [2]): 0.148 µM

SMILES: COc1cc(N2CCC(N)CC2)ccc1Nc1ncc(Cl)c(-c2cn(C)c3ccccc23)n1 [Example 35, N-(4-(4-aminopiperidin-1-yl)-2-methoxyphenyl)-5-chloro-4-(1-methyl-1H-indol-3-yl)pyrimidin-2-amine]
- IC50 (human ALK; [2]): 0.098 µM

SMILES: COc1cc(N2CCC(N3CCN(C)CC3)CC2)ccc1Nc1ncc(F)c(-c2cn(C)c3ccccc23)n1 [Example 36, 5-fluoro-N-(2-methoxy-4-(4-(4-methylpiperazin-1-yl)piperidin-1-yl)phenyl)-4-(1-methyl-1H-indol-3-yl)pyrimidin-2-amine]
- IC50 (human ALK; [2]): 1.48 µM

SMILES: COc1cc(N2CCC(N3CCN(C)CC3)CC2)c(F)cc1Nc1ncc(C)c(-c2c[nH]c3ccccc23)n1 [Example 38, N-[5-fluoro-2-methoxy-4-[4-(4-methylpiperazin-1-yl)-1-piperidyl]phenyl]-4-(1H-indol-3-yl)-5-methyl-pyrimidin-2-amine]
- IC50 (human ALK; [2]): 0.258 µM

SMILES: COc1cc(N2CCC(N3CCN(C)CC3)CC2)c(F)cc1Nc1ncc(Cl)c(-c2c[nH]c3ccccc23)n1 [Example 39, 5-chloro-N-[5-fluoro-2-methoxy-4-[4-(4-methylpiperazin-1-yl)-1-piperidyl]phenyl]-4-(1H-indol-3-yl)pyrimidin-2-amine]
- IC50 (human ALK; [2]): 0.225 µM

SMILES: COc1cc(N2CCC(N3CCN(C)CC3)CC2)c(Cl)cc1Nc1ncc(Cl)c(-c2c[nH]c3ccccc23)n1 [Example 40, 5-chloro-N-[5-chloro-2-methoxy-4-[4-(4-methylpiperazin-1-yl)-1-piperidyl]phenyl]-4-(1H-indol-3-yl)pyrimidin-2-amine]
- IC50 (human ALK; [2]): 0.198 µM

SMILES: COc1cc(N2CCC(N)CC2)ccc1Nc1ncc(F)c(-c2c[nH]c3ccccc23)n1 [Example 41, N-[4-(4-Amino-1-piperidyl)-2-methoxy-phenyl]-5-fluoro-4-(1H-indol-3-yl)pyrimidin-2-amine]
- IC50 (human ALK; [2]): 0.068 µM

Now from value to compound:

- IC50 (human ALK; [1]): 0.021 µM
- IC50 (human ALK; [2]): 0.015 µM
- IC50 (ALK (h)): 0.004 µM
SMILES: COc1cc(N2CCC(N)CC2)ccc1Nc1ncc(Cl)c(-c2c[nH]c3ccccc23)n1 [Example 1, N-(4-(4-Aminopiperidin-1-yl)-2-methoxyphenyl)-5-chloro-4-(1H-indol-3-yl)pyrimidin-2-amine]

- IC50 (human ALK; [2]): 0.14 µM
SMILES: COc1cc(N2CCC(N3C[C@@H](C)O[C@@H](C)C3)CC2)ccc1Nc1ncc(Cl)c(-c2c[nH]c3ccccc23)n1 [Example 24, 5-Chloro-N-(4-(4-((2S,6R)-2,6-dimethylmorpholino)piperidin-1-yl)-2-methoxyphenyl)-4-(1H-indol-3-yl)pyrimidin-2-amine]

- IC50 (human ALK; [2]): 0.39 µM
SMILES: COc1cc(N2CCC(N3CC[C@@H](F)C3)CC2)c(C)cc1Nc1ncc(Cl)c(-c2c[nH]c3ccccc23)n1 [Example 25, (R)-5-Chloro-N-(4-(4-(3-fluoropyrrolidin-1-yl)piperidin-1-yl)-2-methoxy-5-methylphenyl)-4-(1H-indol-3-yl)pyrimidin-2-amine]

- IC50 (human ALK; [2]): 0.113 µM
SMILES: COc1cc(N2CCC(NC3COC3)CC2)ccc1Nc1ncc(Cl)c(-c2c[nH]c3ccccc23)n1 [Example 26, 5-Chloro-4-(1H-indol-3-yl)-N-(2-methoxy-4-(4-(oxetan-3-ylamino)piperidin-1-yl)phenyl)pyrimidin-2-amine]

- IC50 (human ALK; [2]): 0.021 µM
SMILES: COc1cc(N2CCC(N(C)C)CC2)ccc1Nc1ncc(C(F)(F)F)c(-c2c[nH]c3ccccc23)n1 [Example 29, N-(4-(4-(dimethylamino)piperidin-1-yl)-2-methoxyphenyl)-4-(1H-indol-3-yl)-5-(trifluoromethyl)pyrimidin-2-amine]

- IC50 (human ALK; [1]): 0.151 µM
- IC50 (human ALK; [2]): 0.182 µM
SMILES: COc1cc(N2CCC(N)C(C)(C)C2)ccc1Nc1ncc(Cl)c(-c2c[nH]c3ccccc23)n1 (stereo not drawn) [Example 30, N-(4-(4-amino-3,3-dimethylpiperidin-1-yl)-2-methoxyphenyl)-5-chloro-4-(1H-indol-3-yl)pyrimidin-2-amine]

- IC50 (human ALK; [1]): 0.356 µM
- IC50 (human ALK; [2]): 0.343 µM
SMILES: COc1cc(N2CCC(N(C)C)C(C)(C)C2)ccc1Nc1ncc(Cl)c(-c2c[nH]c3ccccc23)n1 (stereo not drawn) [Example 32, 5-chloro-N-(4-(4-(dimethylamino)-3,3-dimethylpiperidin-1-yl)-2-methoxyphenyl)-4-(1H-indol-3-yl)pyrimidin-2-amine]

- IC50 (human ALK; [2]): 0.244 µM
SMILES: COc1cc(N2CCC(N3CCN(C)CC3)CC2)c(F)cc1Nc1ncc(F)c(-c2c[nH]c3ccccc23)n1 [Example 37, 5-Fluoro-N-[5-fluoro-2-methoxy-4-[4-(4-methylpiperazin-1-yl)-1-piperidyl]phenyl]-4-(1H-indol-3-yl)pyrimidin-2-amine]
